# In publication PMC8778984 (Pharmaceutics, 2021):
# Entries after “also recorded” stand apart in the source; their conditions may differ. Where two headings read alike, the source gives them in different places.
# Key:
# [1] = biological target: T1, DHFR (dihydrofolate reductase), partially purified from chicken liver (Gallus gallus, UniProt P00378); experiment: Cell-free enzymatic assay for DHFR (NADPH oxidation, absorbance at 340 nm); type: biochemical; details: for % Inhibition relative to MTX: DHFR inhibitory potency relative to MTX
# T1 construct: Fresh chicken liver (20 g) was cut into pieces, homogenized in 0.1 M MnCl2 and centrifuged; from tissue; host or cells: chicken liver
# T1 sequence (P00378 1-189): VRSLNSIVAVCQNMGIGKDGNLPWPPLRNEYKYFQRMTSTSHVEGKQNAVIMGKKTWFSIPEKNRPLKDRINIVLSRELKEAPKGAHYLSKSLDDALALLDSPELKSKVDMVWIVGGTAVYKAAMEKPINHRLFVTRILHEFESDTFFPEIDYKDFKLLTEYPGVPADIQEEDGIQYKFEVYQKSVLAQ
# Procedure: This was carried out by the procedure of Kaufman and Kemerer with some modifications: Fresh chicken liver (20 g) was cut into pieces, homogenized in 0.1 M MnCl2 and centrifuged. The supernatant was brought to pH 5–6 with HCl, and ZnSO4 was added gradually to obtain a final concentration of 20 mM. The pH was elevated to pH 7.5–8 by the addition of solid NaHCO3. […] The proteins that remained in the supernatant were precipitated with 4.54 M ammonium sulfate. The precipitate was then dissolved in 50 mM Tris-HCl (pH 7.5) containing 0.1 M KCl and dialyzed for two days against the same buffer, and then frozen in aliquots at −80 °C until used.
# (§1) The assay was based on DHFR-dependent reduction of dihydrofolate to tetrahydrofolate. In this process, NADPH is oxidized to NADP, and the extent of the oxidation is monitored by the decrease in absorbance at 340 nm. Tubes containing 1.0 mL each of 0.05 M Tris-HCl buffer (pH 7.5) 0.5 M KCl, 0.137 mM NADPH, and 0.187 mM DHF were incubated for 1 h at 25 °C in the absence and the presence of partially purified DHFR (35 µg/mL) and increasing concentrations of MTX or its derivatives. The absorbance at 340 nm was then monitored.
# Figure 1 Inhibition of dihydrofolate reductase by MTX and MTX analogues. The indicated concentrations of MTX and its derivatives were analyzed for their potencies to inhibit the reduction of dihydrofolate to tetrahydrofolate by DHFR. In this process, NADPH is oxidized to NADP and the extent of this oxidation is monitored by the decrease in absorbance at 340 nm (experimental section).
# CNS-1 rat glioma cells = experiment: Growth inhibition, MTT viability assay, CNS-1 cells; type: cell-based; details: for inhibition compared with MTX (in words): CNS-1 (Figure 4B), at 10 µM, to a lesser extent at 1 µM; for antiproliferative potency compared with MTX (in words): MTX-sensitive cell line CNS-1, 48 h MTT; for antiproliferative potency, BSA–S–S–MTX compared with BSA–(CH2)6–MTX (in words): sensitive glioma cell line CNS-1
# Procedure: (§2) In this study, we used two glioma cell lines: (i) CNS-1; rat glioma; (ii) U251; human glioma. Cells were a generous gift from Dr. Yael Mardor from the Sheba Medical Center, Israel.
# (§3) Cancer cell lines were grown in monoculture in 96-well plates in RPMI (CNS-1 cells) or DMEM containing 10% fetal bovine serum, 2 mM L-glutamine, penicillin (100 units/mL), and streptomycin (0.1 mg/mL) under humidified atmosphere containing 5% CO2. […] Cell viability was measured after 48 h using a standard MTT (3-(4,5-dimethylthiazol-2-yl)-2,5-diphenyltetrazolium bromide) assay, as described before.
# U251 human glioma cells = experiment: Growth inhibition, MTT viability assay, U251 cells; type: cell-based; details: for antiproliferative potency compared with MTX (in words): MTX-insensitive glioma cell line U251, 48 h MTT; for antiproliferative potency, BSA–S–S–MTX compared with BSA–(CH2)6–MTX (in words): insensitive glioma cell line U251
# Procedure: as §2, §3
# [2] = parameters: method as in printed; details: ref not given, cited from earlier work
# glioma cell lines = details: read-out: average EC50; variety of glioma cell lines, large variation among lines; cited from earlier work
# [3] = biological target: T2, DHFR (dihydrofolate reductase) (Gallus gallus, UniProt P00378); experiment: Reactivation of BSA–MTX analogues by DTT, GSH or L-cysteine, read out as DHFR inhibitory potency; type: biochemical, chicken; details: for Fold Reactivation by DTT: 2 mM DTT (dithiothreitol); for reactivation by glutathione and L-cysteine (in words): GSH or L-cysteine at concentrations of 100 μM or lower; for % Activity Relative to MTX: Table 2, + 2 mM DTT
# T2 construct: Fresh chicken liver (20 g) was cut into pieces, homogenized in 0.1 M MnCl2 and centrifuged; from tissue; host or cells: chicken liver
# T2 sequence (P00378 1-189): T1 sequence (P00378 1-189)
# Procedure: as §1
# A solution of BSA–GSSG–MTX (50 μM in 0.1 M HEPES buffer, pH 7.4, 130 mM NaCl) was divided into plastic tubes (1.0 mL/tube) and incubated for 2 h at 25 °C in the absence and the presence of 2 mM DTT and the indicated concentrations of either GSH or L-cysteine. Samples were then analyzed for their DHFR inhibitory potencies and the IC50 values were determined. Results are expressed as percent of maximal reactivation (obtained by preincubation with 2 mM DTT). Each point is the arithmetic mean of n = 4 tubes ± SEM.
# [4] = Maleimide–thiol exchange assay (incubation with GSH, dialysis, absorbance at 372 nm); type: physicochemical
# Procedure: BSA–S–MAL–(CH2)3–CONH–MTX (0.2 mM) was dissolved in 1.0 mL 0.1 M HEPES, pH 7.3, and transferred to a tube containing 7.5 mg GSH corresponding to […] which are 100 molar excess over the conjugate. The solution was incubated for 7 h at 37 °C, followed by extensive dialysis and lyophilization. Absorbance was read at 372 nm.
# cancer cell lines = experiment: Antiproliferative efficacy in the cancer cell lines (unpublished results); type: cell-based
# [5] = Table 1, 1 h at 25 °C, 0.137 mM NADPH, 0.187 mM DHF, read-out: IC50
# [6] = Table 2, without DTT, read-out: DHFR Inhibitory Potency (IC50)
compound,measurement,setting,value
"CN(Cc1cnc2nc(N)nc(N)c2n1)c1ccc(C(=O)NC(CCC(=O)NCCS)C(=O)O)cc1 (centres unmarked) [MTX–cystamine, MTX–CONH–(CH2)2–SH]",IC50,[1]; [5],340 ± 11 nM
same,% Inhibition relative to MTX,[1]; Table 1,16.2%
"CN(Cc1cnc2nc(N)nc(N)c2n1)c1ccc(C(=O)NC(CCC(=O)NCCSSCCN)C(=O)O)cc1 (centres unmarked) [MTX–dicystamine, MTX–CONH–(CH2)2–S–S–(CH2)2–NH2]",IC50,[1]; [5],110 ± 12 nM
same,% Inhibition relative to MTX,[1]; Table 1,50%
"CN(Cc1cnc2nc(N)nc(N)c2n1)c1ccc(C(=O)N[C@@H](CCC(=O)NCCCCCCN)C(=O)O)cc1 [MTX–hexylamine, MTX–CONH–(CH2)6–NH2]",IC50,[1]; [5],80 ± 4 nM
same,% Inhibition relative to MTX,[1]; Table 1,69%
same,% of the DHFR inhibitory potency of MTX,[1]; running text and scheme legend,69%
"CN(Cc1cnc2nc(N)nc(N)c2n1)c1ccc(C(=O)N[C@@H](CCC(=O)O)C(=O)O)cc1 [Methotrexate, reference compound]",viability in comparison to nontreated cells,"CNS-1 rat glioma cells; CNS-1, at maximal effect, 48 h",36%
same,EC50,"CNS-1 rat glioma cells; Rattus norvegicus, Glioma cell, CNS-1, 48 h, MTT, read-out: EC50 (concentration needed to obtain 50% of viable cells relative to untreated cells)",~70 nM
same,Emax,"CNS-1 rat glioma cells; Rattus norvegicus, Glioma cell, CNS-1, within 48 h, read-out: maximal effect",64%
same,EC50,"U251 human glioma cells; Homo sapiens, U-251, U251, 48 h, MTT, read-out: EC50 (concentration needed to obtain 50% of viable cells relative to untreated cells)",~10000 nM
same,Emax,"U251 human glioma cells; Homo sapiens, U-251, U251, at ~10 µM, within 48 h, read-out: maximum effect",49%
same,pKa,[2]; α-carboxylate,~ 2.1
same,pKa,[2]; γ-carboxylate,~ 4.1
same,EC50,glioma cell lines,2400 nM
BSA–S–MAL–(CH2)3–CONH–(CH2)2–S–S–(CH2)2–NH^γCO–MTX [BSA–S–S–MTX],% Activity Relative to MTX,"[1]; Table 2, without DTT",2.0%
same,IC50,[1]; [6],2750 ± 200 nM
same,Fold Reactivation by DTT,[3],7.05 fold
same,reactivation by GSH (in words),[3]; GSH at a concentration of 1 mM or higher,reactivated
same,reactivation by glutathione and L-cysteine (in words),[3],do not reactivate
same,% Activity Relative to MTX,[3],14.1%
same,inhibition compared with MTX (in words),CNS-1 rat glioma cells,significantly more inhibitory than MTX
same,antiproliferative potency compared with MTX (in words),CNS-1 rat glioma cells,less potent than MTX
same,"antiproliferative potency, BSA–S–S–MTX compared with BSA–(CH2)6–MTX (in words)",CNS-1 rat glioma cells,slightly less potent than BSA–(CH2)6–MTX; also recorded: essentially equipotent
same,antiproliferative potency compared with MTX (in words),U251 human glioma cells,significantly more potent
same,"antiproliferative potency, BSA–S–S–MTX compared with BSA–(CH2)6–MTX (in words)",U251 human glioma cells,slightly less potent than BSA–(CH2)6–MTX; also recorded: essentially equipotent
BSA–S–MAL–(CH2)3–CONH–(CH2)6–NH^γCO–MTX [BSA–(CH2)6–MTX],% Activity Relative to MTX,"[1]; Table 2, without DTT",7.0%
same,IC50,[1]; [6],790 ± 30 nM
same,maleimide–thiol exchange (in words),"[4]; 100-fold molar excess of GSH, 7 h, pH 7.3, 37 °C, listed as BSA–S–MAL–(CH2)3–CONH–MTX",did not undergo significant maleimide–thiol exchange; also recorded: such exchange does not occur
same,Absorbance at 372 nm per mg Protein,[4]; Control (no GSH),0.479 ± 0.03
same,Absorbance at 372 nm per mg Protein,"[4]; GSH, 100 molar excess, 7 h, 37 °C, pH 7.3, then dialysis",0.487 ± 0.03
same,cleavage of the spacer peptide bond (in words),[4]; neutral pH,not cleaved
same,inhibition compared with MTX (in words),CNS-1 rat glioma cells,significantly more inhibitory than MTX
same,antiproliferative potency compared with MTX (in words),CNS-1 rat glioma cells,less potent than MTX
same,"antiproliferative potency, BSA–S–S–MTX compared with BSA–(CH2)6–MTX (in words)",CNS-1 rat glioma cells,essentially equipotent
same,antiproliferative potency compared with MTX (in words),U251 human glioma cells,significantly more potent
same,"antiproliferative potency, BSA–S–S–MTX compared with BSA–(CH2)6–MTX (in words)",U251 human glioma cells,essentially equipotent
BSA–S–MAL–(CH2)3–CO–NH–GSSG–NH^γCO–MTX [BSA–GSSG–MTX],% Activity Relative to MTX,"[1]; Table 2, without DTT",3.14%
same,IC50,[1]; [6],1750 ± 120 nM
same,Fold Reactivation by DTT,[3],5.16 fold
same,reactivation by glutathione and L-cysteine (in words),[3],do not reactivate
same,% Activity Relative to MTX,[3],16.2%
same,reactivation of DHFR inhibitory potency by GSH and cysteine (in words),[3]; cell-free state,highly effective in reactivating
same,antiproliferative efficacy (in words),cancer cell lines,low antiproliferative efficacy
